Assay results published in patent US9724366B2, “CD11 B[low] macrophages and conditioned media thereof for treating cancer and/or fibrosis” (CARMEL-HAIFA UNIVRSITY ECONOMIC CORPORATION LTD., priority 2012, dated 2017).

Assays:
[1] = test system: MEFs; experiment: Apoptosis detection in MEFs by TUNEL; format: cell-based, mouse; settings: 1.5 μg/ml, 4 hours, positive control
Description: MEF cell line were cultured as described above in 8 well chamber glass slides, fixed with 4% PFA containing 5% sucrose and incubated for 1 hour with a mixture of TUNEL reaction mix according to the manufacturer's protocol (In Situ Cell death Detection Kit; TMR Red) covered with aluminum foil and placed in the 37° C., 5% CO2 incubator for 1 hour. Next, the slides were washed three times with PBS for 15 minutes each, and mounted with VECTASHIELD mounting medium with DAPI. The slides were imaged using a Nikon A1-R confocal laser scanning microscope (University of Haifa, Haifa, Israel).
3 images were captured from each well. Each captured frame was analyzed using NIS-Elements AR software to measure in the defined area the number of cells with positive DAPI staining, co-staining for DAPI and TUNEL (selected cells were larger than 8 μm), or Col-I expression by measuring sum intensity of area stained for Col-I per captured field.
Next we explored whether the inhibition of MEF proliferation by the CM-Mres was due to cell cycle arrest or increase in apoptosis of MEF. Therefore, we tested apoptosis of the MEFs at 48 hours. Therefore, MEFs were either untreated or were induced to differentiate on 8 chamber glass slides and were pre-incubated with CM-Mres 1 hour prior to adding TGFβ1. […] The cells were fixed and evaluated for apoptotic death by TUNEL staining. […]

[2] = test system: peritonitis-affected mice; experiment: Murine zymosan A peritonitis, RvD1, RvE1 or Dex introduced into the peritoneum; format: in vivo; settings: for appearance of CD11b^low macrophages in peritoneal exudates, increases over vehicle treatment: RvD1, RvE1 100 ng/mouse, Dex 25 mg/mouse into peritoneum 48 h after peritonitis initiation, exudates at 66 h; for neutrophil numbers: peritoneal exudates
Description: Male C57BL/6 mice (6-8 wk) were injected intraperitionealy (I.P) with zymosan A (1 mg). 66 hours post zymosan A injection, the mice were euthanized by CO2, their peritoneal cavity was lavaged with 5 ml of phosphate buffered saline (PBS) and the peritoneal exudates were collected by centrifugation for further analysis and experimentation.
Peritoneal exudates were collected and exudate cells were stained with FITC-conjugated rat anti-mouse Ly-6G, PE-conjugated rat anti-mouse F4/80, and PerCP-conjugated rat anti-mouse CD11b (Biolegend) and analyzed by FACSCalibur (Beckton-Dickinson). Macrophages were isolated using EasySep PE selection magnetic beads following the manufacturer's instructions (StemCell Technologies).
In some experiments, the macrophages were sorted to CD11b^high and CD11b^low populations of >95% purity, using FACSaria (Beckton-Dickinson), and the separate populations were used for microscopic analysis and for ex vivo stimulation. In some experiments, PKH2-PCL green (0.25 mM, 0.5 mL) was injected I.P at 48 h and peritoneal cells were recovered 4 h later, immunostained for F4/80 and CD11b as above and analyzed for fluorescence intensity of different macrophage populations. In relevant experiments, vehicle, RvD1, RvE1 (100 ng/mouse each), or Dex (25 mg/mouse) were introduced to the peritoneum 48 h after peritonitis initiation, and the exudates were recovered after 66 h and analyzed as before.
Exudate cells or sorted CD11b^high and CD11b^low macrophages were stained with Hoechst, and enumerated under a fluorescent microscope (Zeiss). Two areas of two cover slips, each containing at least 50 (overall 200) macrophages were analyzed, and the average number of PMN engulfed per macrophage as well as the number of macrophages with cutoff numbers of engulfed PMN, were calculated.
Similar properties were attributed to glucocorticoids, such as dexamethasone (Dex), that inhibit leukocyte infiltration to inflammation sites and promote the clearance of apoptotic PMN by macrophages. To determine whether pro-resolving mediators regulate emergence of CD11b^low macrophages and thereby promote resolution, RvD1, RvE1, or Dex were introduced into peritonitis-affected mice, and the recovered leukocytes were collected and analyzed for macrophage and neutrophil numbers, macrophage CD11b expression, engulfment of PMN, and responsiveness to LPS. The results are presented in FIG. 8 of Schif-Zuck et al., 2011, which is incorporated herein by reference. […] In addition, RvD1, RvE1 and Dex enhanced the appearance of CD11b^low macrophages (32.8±8.8%, 46.2±1.8%, and 39.9±4.6% increases over vehicle treatment, for RvD1, RvE1, and Dex, respectively) in peritoneal exudates. […] To determine whether RvD1, RvE1, and Dex regulate apoptotic PMN engulfment by macrophages during resolution, exudate cells were enumerated for PMN engulfment and analyzed as in FIG. 2.

[3] = test system: macrophages recovered from peritoneal exudates; experiment: Ex vivo macrophage switch to the CD11b^low phenotype by pro-resolving lipid mediators (flow cytometry); format: cell-based, mice; settings: mediators 50 nM, Dex 25 μg/ml
Description: FIG. 8 show promotion of macrophage switch to the CD11b^low phenotype by pro-resolving lipid mediators. Macrophages were recovered from peritoneal exudates 72 hrs post peritonitis initiation and incubated overnight with vehicle (RPMI 10% FBS+0.05% ethanol), RvD1, RvD2, PD1, LXB4, or 15-epi-LXA4, (all at 50 nM), apoptotic cells (M/N ratio of 1:5), or Dex (25 μg/ml). Then, the cells were stained for CD11b and analyzed by flow cytometry, and the percentage of CD11b^low (A) and CD11b^high (B) macrophages was determined. Results are mean±SE of two experiments (n=2). #P<0.005, $ P<0.01, * P<0.05 compared to vehicle.
Macrophages were recovered from peritoneal exudates 72 hrs post peritonitis initiation and incubated overnight with either RPMI 10% FBS+0.05% ethanol, the resolvins RvD1 or RvD2, […] PD1 or lipoxins LXB4, or 15-epi-LXA4, (all at 50 nM), apoptotic cells (M/N ratio of 1:5), or Dex (25 μg/ml). After 20 hours, the cells were stained for CD11b and analyzed by flow cytometry.

[4] = test system: macrophages; experiment: Cytokine secretion (ELISA) of macrophages from treated mice, unstimulated or activated with LPS; format: cell-based; settings: unstimulated and LPS-stimulated macrophages
Description: Exudate macrophages were sorted or separated using PE selection magnetic beads (StemCell Technologies) and incubated (1×10^6 cells in 0.5 mL of culture media) with LPS (0-1000 ng/mL), poly (I:C) (4 μg/mL), or CpG-ODN (1 μM). After 16 h, the supernatants were collected and their TNF-α, IL-β, IL-10, TGFβ, CCL2, CCL3, and CCL5 contents were determined by standard ELISA.
To validate the improvement in immune-silencing of macrophages that followed treatment with RvD1, RvE1 and Dex, macrophages were activated with LPS, and cytokine secretion was determined. […] Thus, treatment with RvD1, RvE1, and Dex, promoted macrophage immune-silencing, as well as the secretion of pro-resolving cytokines from these cells.

CN[C@@H]1C[C@H]2O[C@@](C)([C@@H]1OC)n1c3ccccc3c3c4c(c5c6ccccc6n2c5c31)C(=O)NC4 [staurosporine]
percentage of apoptotic cells (TUNEL) [1]: no significant changes

C[C@@H]1C[C@H]2[C@@H]3CCC4=CC(=O)C=C[C@]4(C)[C@@]3(F)[C@@H](O)C[C@]2(C)[C@@]1(O)C(=O)CO [Dex, dexamethasone]
appearance of CD11b^low macrophages in peritoneal exudates, increases over vehicle treatment [2]: 39.9±4.6%

CC/C=C\C[C@H](O)\C=C/C=C/C=C/[C@H](O)C/C=C\C/C=C\CCC(=O)O [PD1]
macrophage switch to the CD11b^low phenotype [3]: promotes macrophage switch

CC/C=C\C[C@H](O)/C=C/C=C\C=C\C=C\[C@@H](O)[C@@H](O)C/C=C\CCC(=O)O [RvD1, 7S,8R,17S-trihydroxy-4Z,9E,11E,13Z,15E,19Z-docosahexaenoic acid]
appearance of CD11b^low macrophages in peritoneal exudates, increases over vehicle treatment [2]: 32.8±8.8% | CD11b expression on CD11b^high macrophages ([2]; mouse, in vivo): reduced | number of macrophages in peritoneal cavities ([2]; mouse, in vivo): reduced | numbers of apoptotic PMN engulfed by macrophages present in the peritoneum ([2]; mouse, in vivo): reduced | neutrophil numbers [2]: induced a reduction | secretion of TNFα [4]: inhibited | macrophage switch to the CD11b^low phenotype [3]: promotes macrophage switch

CC[C@@H](O)/C=C/C=C\C[C@@H](O)/C=C/C=C/C=C\[C@@H](O)CCCC(=O)O [RvE1, 5S,12R,18R-trihydroxy-4Z,8E,10E,14Z,16E-eico sapentaenoic acid]
appearance of CD11b^low macrophages in peritoneal exudates, increases over vehicle treatment [2]: 46.2±1.8% | CD11b expression on CD11b^high macrophages ([2]; mouse, in vivo): reduced | appearance in the peritoneum of low-engulfing macrophages (less than 2 N/M) ([2]; mouse, in vivo): induced | neutrophil numbers [2]: induced a reduction | secretion of TNFα [4]: inhibited

CCCCC[C@H](O)[C@H](O)/C=C/C=C/C=C\C=C\[C@@H](O)CCCC(=O)O [LXB4]
macrophage switch to the CD11b^low phenotype [3]: promotes macrophage switch

CC/C=C\C[C@H](O)[C@H](O)/C=C/C=C/C=C\C=C\[C@@H](O)C/C=C\CCC(=O)O [RvD2]
macrophage switch to the CD11b^low phenotype [3]: promotes macrophage switch

CCCCC[C@@H](O)/C=C/C=C\C=C\C=C\[C@@H](O)[C@@H](O)CCCC(=O)O [15-epi-LXA4]
macrophage switch to the CD11b^low phenotype [3]: promotes macrophage switch
